# According to patent publication US8642070B2, “Feed additive composition for ruminants, and feed containing the same, and method of fabricating such feed additive composition for ruminants” (Bio Science Co., Ltd., priority 2004, dated 2014):
# Assay: Stability of the biologically active substance at the melting temperature of the spray melt blending liquid
# Assay type: physicochemical
# Conditions: for Mean Content (%): liquid agitated 1 hour before injection
# Experimental: Next, stability of the biologically active substance was studied in order to determine optimum temperature for the spray melt blending liquid used in the granulation through injection. […] However, when kept warmed below 75° C., the content remains high. Based on this fact, in the case of a rumen bypass product with a biologically active substance, employing a thermally vulnerable vitamins such as a calcium pantothenate, such vitamins can be contained in the preparation without suffering from any damage when granulation through injection is carried out, limiting the temperature of spray melt blending liquid to less than 75° C.
Mean Content (%) (Melting Temperature 60 °C),Mean Content (%) (Melting Temperature 65 °C),Mean Content (%) (Melting Temperature 70 °C),Mean Content (%) (Melting Temperature 75 °C),Mean Content (%) (Melting Temperature 80 °C),"content estimated when kept warmed above 90° C. (kept warmed above 90° C., extrapolated from Table 4)",Compound
100.5,100.3,103.6,104.2,109.6,,CSCC[C@H](N)C(=O)O [Methionine]
99.5,98.2,100.3,101.2,102.0,,O=C(O)c1cccnc1 [Nicotinic Acid]
98.6,96.9,97.1,94.5,71.5,below 50%,Calcium Pantothenate
